{"source": "paper PMC7794376", "about": "(Nature Communications, 2021)", "key": {"[1]": {"target": "MsmCoaBC (Mycolicibacterium smegmatis, UniProt A0QWT2)", "sequence (A0QWT2 whole entry)": "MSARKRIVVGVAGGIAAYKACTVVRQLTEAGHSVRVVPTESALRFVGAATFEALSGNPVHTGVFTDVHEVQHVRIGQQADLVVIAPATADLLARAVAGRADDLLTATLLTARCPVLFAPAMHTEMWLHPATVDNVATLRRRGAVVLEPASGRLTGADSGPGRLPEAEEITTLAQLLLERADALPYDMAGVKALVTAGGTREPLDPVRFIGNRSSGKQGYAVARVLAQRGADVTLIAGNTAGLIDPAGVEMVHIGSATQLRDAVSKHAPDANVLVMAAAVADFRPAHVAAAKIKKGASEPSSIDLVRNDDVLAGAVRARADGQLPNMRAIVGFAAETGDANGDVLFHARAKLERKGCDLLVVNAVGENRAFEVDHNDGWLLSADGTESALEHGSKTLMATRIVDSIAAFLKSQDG", "experiment": "EnzChek pyrophosphate assay, CoaB activity of MsmCoaBC", "assay_type": "biochemical, Mycobacterium smegmatis", "conditions": "for Activity: slope of absorbance at 360 nm vs time (s); for inhibition, IC50 MsmCoaBC 2b / reaction rate (slope of absorbance at 360 nm over time), IC50 MsmCoaBC 2b / remaining activity relative to control, IC50 MsmCoaBC 2b: triplicate", "protocol": "The commercially available EnzChek pyrophosphate assay kit (E-6645) (Life Technologies) was used for this assay. […] In the assays with HCoaB an enzyme concentration of 1 µM was used instead. […] Assays were performed on either a CLARIOstar or PHERAstar microplate reader (BMG Labtech) in 96-well plates (Greiner). A substrate mixture containing the substrates and the inhibitor was pre-incubated at 25 °C for 10 min. An enzyme solution was prepared and separately pre-incubated at 25 °C for 10 min. The reaction was initiated by the addition of the substrates to the solution containing the enzyme to a final volume of 75 µL. Enzymatic activity was monitored by following the absorbance at 360 nm for 30 min (100 cycles/20 s each cycle) and only the steady-state region of the assay was used for data analysis. Assays were performed in triplicates, including a negative control (lacking PPA) and a positive control (lacking inhibitor)."}, "[2]": {"target": "MtbCoaBC (Mycobacterium tuberculosis, UniProt P9WNZ1)", "sequence (P9WNZ1 whole entry)": "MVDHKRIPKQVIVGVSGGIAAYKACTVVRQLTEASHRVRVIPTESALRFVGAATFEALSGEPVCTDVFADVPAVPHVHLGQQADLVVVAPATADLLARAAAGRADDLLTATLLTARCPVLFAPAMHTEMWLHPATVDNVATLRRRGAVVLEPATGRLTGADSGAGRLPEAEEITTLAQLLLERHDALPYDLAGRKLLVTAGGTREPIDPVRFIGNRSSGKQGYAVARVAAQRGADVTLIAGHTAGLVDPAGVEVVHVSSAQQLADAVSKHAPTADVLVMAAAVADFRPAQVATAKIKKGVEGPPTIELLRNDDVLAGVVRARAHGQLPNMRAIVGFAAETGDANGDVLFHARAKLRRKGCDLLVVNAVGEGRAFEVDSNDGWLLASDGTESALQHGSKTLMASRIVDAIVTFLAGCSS", "experiment": "biochemical", "assay_type": "biochemical", "conditions": "for activity at 0.015625 µM / activity at 0.03125 µM / activity at 0.0625 µM / activity at 0.25 µM / activity at 0.5 µM: relative to average DMSO CT; for Activity R1 / Activity R3: slope of absorbance at 360 nm vs time (s)"}, "[3]": {"conditions": "0.5 uM 2b, relative to average DMSO CT, replicates R1-R3"}, "[4]": {"conditions": "inhibitor concentration 1 (log 0; unit not given)"}, "[5]": {"conditions": "inhibitor concentration 2 (log 0.30103; unit not given)"}, "[6]": {"conditions": "inhibitor concentration 1 (log 0), unit not shown, three replicates"}, "[7]": {"conditions": "inhibitor concentration 2 (log 0.30103), unit not shown, three replicates"}}, "note": "Where “and” joins values, the source holds several entries; their conditions need not be identical. Equal values may be shown once. Read-outs that look alike come from different tables or passages of the source."}
{"smiles": "O=c1cc(-c2ccc(O)c(O)c2)oc2cc(O)c(O)cc12", "note": "[compound 2b]", "values": [{"measurement": "Activity", "setting": "[1]; 0.25 uM 2b, replicates R1-R3", "value": "0.0001413 and 0.0001296 and 0.0001459"}, {"measurement": "Activity %", "setting": "[1]; [3]", "value": "29.05% and 29.76%"}, {"measurement": "activity at 0.5 µM", "setting": "[1]; [3]", "value": 30.5, "unit": "%"}, {"measurement": "Inhibition %", "setting": "[1]; 0.5 uM 2b, replicates R1-R3", "value": "70.24% and 69.54%"}, {"measurement": "inhibition at 0.5 µM", "setting": "[1]; 0.5 uM 2b, replicates R1-R3", "value": 71, "unit": "%"}, {"measurement": "Activity", "setting": "[1]; 0.5 uM 2b, replicates R1-R3", "value": "0.000094507 and 0.000090122 and 0.000092326"}, {"measurement": "inhibition, IC50 MsmCoaBC 2b", "setting": "[1]; [4]", "value": "88.05 and 84.53 and 91.37"}, {"measurement": "reaction rate (slope of absorbance at 360 nm over time), IC50 MsmCoaBC 2b", "setting": "[1]; [4]", "value": "0.000026783 and 0.000037077 and 0.000047977"}, {"measurement": "remaining activity relative to control, IC50 MsmCoaBC 2b", "setting": "[1]; [4]", "value": "8.633 and 11.95 and 15.47"}, {"measurement": "inhibition, IC50 MsmCoaBC 2b", "setting": "[1]; [5]", "value": "96.00 and 96.49 and 94.20"}, {"measurement": "reaction rate (slope of absorbance at 360 nm over time), IC50 MsmCoaBC 2b", "setting": "[1]; [5]", "value": "0.000017982 and 0.000012403 and 0.000010882"}, {"measurement": "remaining activity relative to control, IC50 MsmCoaBC 2b", "setting": "[1]; [5]", "value": "5.796 and 3.998 and 3.508"}, {"measurement": "inhibition at 0.015625 µM", "setting": "[2]; 0.015625 uM 2b, replicate R1, read-out: Inhibition % R1", "value": 8.08, "unit": "%"}, {"measurement": "activity at 0.015625 µM", "setting": "[2]; 0.015625 uM 2b, replicate R1, read-out: Activity % R1", "value": 91.9, "unit": "%"}, {"measurement": "Activity R1", "setting": "[2]; 0.015625 uM 2b, replicate R1", "value": 0.0001714}, {"measurement": "inhibition at 0.015625 µM", "setting": "[2]; 0.015625 uM 2b, replicate R2, read-out: Inhibition % R2", "value": 5.01, "unit": "%"}, {"measurement": "activity at 0.015625 µM", "setting": "[2]; 0.015625 uM 2b, replicate R2, read-out: Activity % R2", "value": 95, "unit": "%"}, {"measurement": "inhibition at 0.015625 µM", "setting": "[2]; 0.015625 uM 2b, replicate R3, read-out: Inhibition % R3", "value": 10.3, "unit": "%"}, {"measurement": "activity at 0.015625 µM", "setting": "[2]; 0.015625 uM 2b, replicate R3, read-out: Activity % R3", "value": 89.7, "unit": "%"}, {"measurement": "Activity R3", "setting": "[2]; 0.015625 uM 2b, replicate R3", "value": 0.0001672}, {"measurement": "inhibition at 0.03125 µM", "setting": "[2]; 0.03125 uM 2b, replicate R1, read-out: Inhibition % R1", "value": 20.2, "unit": "%"}, {"measurement": "activity at 0.03125 µM", "setting": "[2]; 0.03125 uM 2b, replicate R1, read-out: Activity % R1", "value": 79.8, "unit": "%"}, {"measurement": "Activity R1", "setting": "[2]; 0.03125 uM 2b, replicate R1", "value": 0.0001487}, {"measurement": "inhibition at 0.03125 µM", "setting": "[2]; 0.03125 uM 2b, replicate R2, read-out: Inhibition % R2", "value": 19.2, "unit": "%"}, {"measurement": "activity at 0.03125 µM", "setting": "[2]; 0.03125 uM 2b, replicate R2, read-out: Activity % R2", "value": 80.8, "unit": "%"}, {"measurement": "inhibition at 0.03125 µM", "setting": "[2]; 0.03125 uM 2b, replicate R3, read-out: Inhibition % R3", "value": 19.4, "unit": "%"}, {"measurement": "activity at 0.03125 µM", "setting": "[2]; 0.03125 uM 2b, replicate R3, read-out: Activity % R3", "value": 80.6, "unit": "%"}, {"measurement": "Activity R3", "setting": "[2]; 0.03125 uM 2b, replicate R3", "value": 0.0001503}, {"measurement": "inhibition at 0.0625 µM", "setting": "[2]; 0.0625 uM 2b, replicate R1, read-out: Inhibition % R1", "value": 37.9, "unit": "%"}, {"measurement": "activity at 0.0625 µM", "setting": "[2]; 0.0625 uM 2b, replicate R1, read-out: Activity % R1", "value": 62.1, "unit": "%"}, {"measurement": "Activity R1", "setting": "[2]; 0.0625 uM 2b, replicate R1", "value": 0.0001157}, {"measurement": "inhibition at 0.0625 µM", "setting": "[2]; 0.0625 uM 2b, replicate R2, read-out: Inhibition % R2", "value": 38.9, "unit": "%"}, {"measurement": "activity at 0.0625 µM", "setting": "[2]; 0.0625 uM 2b, replicate R2, read-out: Activity % R2", "value": 61.2, "unit": "%"}, {"measurement": "inhibition at 0.0625 µM", "setting": "[2]; 0.0625 uM 2b, replicate R3, read-out: Inhibition % R3", "value": 38, "unit": "%"}, {"measurement": "activity at 0.0625 µM", "setting": "[2]; 0.0625 uM 2b, replicate R3, read-out: Activity % R3", "value": 62, "unit": "%"}, {"measurement": "Activity R3", "setting": "[2]; 0.0625 uM 2b, replicate R3", "value": 0.0001157}, {"measurement": "inhibition at 0.25 µM", "setting": "[2]; 0.25 uM 2b, replicate R1, read-out: Inhibition % R1", "value": 95, "unit": "%"}, {"measurement": "activity at 0.25 µM", "setting": "[2]; 0.25 uM 2b, replicate R1, read-out: Activity % R1", "value": 4.96, "unit": "%"}, {"measurement": "Activity R1", "setting": "[2]; 0.25 uM 2b, replicate R1", "value": 0.000009249}, {"measurement": "activity at 0.25 µM", "setting": "[2]; 0.25 uM 2b, replicate R2, read-out: Activity % R2", "value": 4.35, "unit": "%"}, {"measurement": "inhibition at 0.25 µM", "setting": "[2]; 0.25 uM 2b, replicate R3, read-out: Inhibition % R3", "value": 95.6, "unit": "%"}, {"measurement": "activity at 0.25 µM", "setting": "[2]; 0.25 uM 2b, replicate R3, read-out: Activity % R3", "value": 4.39, "unit": "%"}, {"measurement": "Activity R3", "setting": "[2]; 0.25 uM 2b, replicate R3", "value": 0.000008176}, {"measurement": "inhibition at 0.5 µM", "setting": "[2]; 0.5 uM 2b, replicate R1, read-out: Inhibition % R1", "value": 97.8, "unit": "%"}, {"measurement": "activity at 0.5 µM", "setting": "[2]; 0.5 uM 2b, replicate R1, read-out: Activity % R1", "value": 2.19, "unit": "%"}, {"measurement": "Activity R1", "setting": "[2]; 0.5 uM 2b, replicate R1", "value": 0.000004090}, {"measurement": "inhibition at 0.5 µM", "setting": "[2]; 0.5 uM 2b, replicate R2, read-out: Inhibition % R2", "value": 99, "unit": "%"}, {"measurement": "activity at 0.5 µM", "setting": "[2]; 0.5 uM 2b, replicate R2, read-out: Activity % R2", "value": 1, "unit": "%"}, {"measurement": "inhibition at 0.5 µM", "setting": "[2]; 0.5 uM 2b, replicate R3, read-out: Inhibition % R3", "value": 97, "unit": "%"}, {"measurement": "activity at 0.5 µM", "setting": "[2]; 0.5 uM 2b, replicate R3, read-out: Activity % R3", "value": 3, "unit": "%"}, {"measurement": "Activity R3", "setting": "[2]; 0.5 uM 2b, replicate R3", "value": 0.000005588}, {"measurement": "inhibition, IC50 MtbCoaBC 2b", "setting": "[2]; [6]", "value": 99.01}, {"measurement": "reaction rate (slope of absorbance at 360 nm vs time), IC50 MtbCoaBC 2b", "setting": "[2]; [6]", "value": "0.000001846 and 0.000001860 and -0.000003443"}, {"measurement": "remaining activity relative to control, IC50 MtbCoaBC 2b", "setting": "[2]; [6]", "value": "0.9903 and 0.9976 and -1.847"}, {"measurement": "reaction rate (slope of absorbance at 360 nm vs time), IC50 MtbCoaBC 2b", "setting": "[2]; [7]", "value": "-0.000001738 and -0.000001919 and -0.000000593"}, {"measurement": "remaining activity relative to control, IC50 MtbCoaBC 2b", "setting": "[2]; [7]", "value": "-0.932 and -1.029 and -0.318"}, {"measurement": "IC50", "setting": "[2]; read-out: IC50 EnzChek MtbCoaBC", "value": "80 ± 10", "unit": "nM"}, {"measurement": "inhibition at 0.25 µM", "setting": "[2]; read-out: Inhibition % R2", "value": 95.7, "unit": "%"}]}
